This passage reports IC50 results from ChEMBL document CHEMBL1146577, “Sulfemodin 8-O-beta-D-glucoside, a new sulfated anthraquinone glycoside, and antioxidant phenolic compounds from Rheum emodi” (J Nat Prod, 2003).

The structures appear in SMILES notation. Values after ≈ are worked out from the molar mass of the structure shown.

The experiment concerns Radical scavenging activity. The experiment can be described thus: Antioxidant activity assessed as DPPH radical scavenging activity. The class given is functional.

On to `COc1cc(O)c2c(c1)C(=O)c1cc(C)cc(O[C@@H]3O[C@H](CO)[C@@H](O)[C@H](O)[C@H]3O)c1C2=O`, for which the IC50 is more than 100 µg/mL.

On to `Cc1cc(O)c2c(c1)C(=O)c1cc(O)cc(O)c1C2=O` [EMODIN], for which the IC50 is more than 100 µg/mL.

For `COc1cc(O[C@@H]2O[C@H](CO)[C@@H](O)[C@H](O)[C@H]2O)c2c(O)c(C(C)=O)c(C)cc2c1`, the IC50 was found to be 18.5 µg/mL (≈ 45.3 µM).

As for `Oc1cc(O)c2c(c1)O[C@H](c1ccc(O)c(O)c1)[C@H](O)C2` [(-)-EPICATECHIN], the concentration for half-maximal inhibition (IC50) was 1.7 µg/mL (≈ 5.86 µM).

Turning to `Cc1cc(O)c2c(c1)C(=O)c1cccc(O)c1C2=O` [CHRYSOPHANOL], the IC50 was more than 100 µg/mL.

Take `COc1cc(O)c2c(c1)C(=O)c1cc(C)cc(O)c1C2=O` [PHYSCION]: the IC50 is more than 100 µg/mL.

Turning to `Cc1cc(O[C@@H]2O[C@H](CO)[C@@H](O)[C@H](O)[C@H]2O)c2c(c1)C(=O)c1cc(O)cc(O)c1C2=O`, the concentration for half-maximal inhibition (IC50) is more than 100 µg/mL.

Turning to `O=C1O[C@H]([C@@H](O)CO)C(O)=C1O` [ASCORBIC ACID], the IC50 amounted to 3.9 µg/mL (≈ 22.1 µM).

`Cc1cc(O)c2c(c1)C(=O)c1cccc(O[C@@H]3O[C@H](CO)[C@@H](O)[C@H](O)[C@H]3O)c1C2=O` [PULMATIN]: the IC50 is more than 100 µg/mL.

`O=C1c2c(O)cc(O)cc2OC1(O)Cc1ccc(O)cc1` (stereo unspecified) [MAESOPSIN]: the concentration for half-maximal inhibition (IC50) worked out at 5.3 µg/mL (≈ 18.4 µM).

Consider `COc1cc(O)cc2c1C(=O)C(O)(Cc1ccc(O)cc1)O2` (stereo unspecified) [CARPUSIN], for which the IC50 came to 4.7 µg/mL (≈ 15.5 µM).
